Measured values published in ChEMBL document CHEMBL1148527, “Structure-based design of spiro-oxindoles as potent, specific small-molecule inhibitors of the MDM2-p53 interaction” (J Med Chem, 2006).

Key:
Bcl-2-like protein 1 = Bcl-2-like protein 1 (Homo sapiens, UniProt Q07817); experiment: Displacement of Flu-Bid from human recombinant Bcl-xL receptor
[1] = target: Apoptosis regulator Bcl-2 (Homo sapiens, UniProt P10415); experiment: Displacement of Flu-Bid from human recombinant Bcl2 receptor
Apoptosis regulator Bcl-2, sequence (P10415 whole entry): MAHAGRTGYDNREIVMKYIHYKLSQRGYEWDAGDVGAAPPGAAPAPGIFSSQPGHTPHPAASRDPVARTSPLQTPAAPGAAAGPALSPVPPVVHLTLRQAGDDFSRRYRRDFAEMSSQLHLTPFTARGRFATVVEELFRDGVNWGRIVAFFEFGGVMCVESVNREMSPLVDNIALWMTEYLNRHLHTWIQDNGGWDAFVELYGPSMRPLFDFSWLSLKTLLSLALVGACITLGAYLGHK

Bcl-2-like protein 1, sequence (Q07817 whole entry): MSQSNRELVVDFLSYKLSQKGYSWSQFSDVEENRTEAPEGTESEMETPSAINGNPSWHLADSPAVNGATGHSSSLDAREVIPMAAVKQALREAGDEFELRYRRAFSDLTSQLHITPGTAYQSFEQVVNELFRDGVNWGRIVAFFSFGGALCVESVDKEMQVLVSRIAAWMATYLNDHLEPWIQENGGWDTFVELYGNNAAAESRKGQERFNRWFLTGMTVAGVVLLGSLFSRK

In the case of `CC(C)(C)C[C@H]1N[C@@H](C(=O)NCCN2CCOCC2)[C@H](c2cccc(Cl)c2F)[C@@]12C(=O)Nc1cc(Cl)ccc12`, the IC50 (Bcl-2-like protein 1) is reported as over 50 µM and the IC50 [1] is reported as over 50 µM.
